Test results from patent US20090176786A1, “Benzoylurea Compounds and Use Thereof” (priority 2005, published 2009).

Legend:
Format in all cases: in vivo
[1] = test system: Frankliniella occidentalis; experiment: Test Example 4: spray on cucumber, control value against Frankliniella occidentalis larvae; conditions: 168 h, test concentration 50 ppm, spray 20 ml/cup on cucumber, 30 larvae, seven days after spraying
Procedure: The obtained preparation was diluted with water so that the active ingredient concentration became to a predetermined concentration to prepare a spray solution for test. […] were planted in polyethylene cups, and were grown until the first true leaf was developed. The spray solution for test prepared above was sprayed at the rate of 20 ml/cup on the cucumber. After the pesticidal solution sprayed onto the cucumber was dried, the first true leaf was cut off and then placed on a filter paper (diameter: 70 mm) containing water in a polyethylene cup (diameter: 110 mm). On the cucumber leaf, 30 larvae of Frankliniella occidentalis were released, and the polyethylene cup was capped. Seven days after spraying, the number of pests surviving on the cucumber leaf was counted, and a control value was calculated by the following equation: Control value(%)={1−(Cb×Tai)/(Cai×Tb)}×100 wherein, each symbol has following meaning: Cb: the number of pests before treatment in a non-treated area Cai: the number of pests at the time of observation in a non-treated area Tb: the number of pests before treatment in a treated-area Tai: the number of pests at the time of observation in a treated-area. […] The test concentrations of the other present compounds were 50 ppm.

Plutella xylostella [2] = experiment: Test Example 2: cabbage root immersion (systemic), dead pest rate of Plutella xylostella larvae; conditions: Plutella xylostella, 120 h, root immersion 5 days, 10 second-instar larvae, after 5 days at 24° C.; for pest or weed control at 25 ppm: test concentration 25 ppm
Procedure: In 0.25 mL of a mixture solution of Sorgen TW-20 (manufactured by Daiichi Industries Pharmaceuticals, Co., Ltd.) and acetone (mixture volume ratio; Sorgen TW-20:acetone=1:19), 2.5 mg of the present compound (1), (2), (3), (4), (7), (10), (11), (12), (16), (18), (19), (20), (21), (22), (25), (30), (36), (37), (41), (42), (52), (54), (56), (57), (60), (62), (105) or (109) was dissolved. The solution was diluted with ion-exchanged water so that the active ingredient concentration became to a predetermined concentration to prepare a pesticidal solution for test of the test compound. The root part of cabbages in the fourth leaf period were washed with tap water to remove soils, and then immersed in the pesticidal solution for test. After 5 days from immersion of the root part, the root part was removed, and the leaves and stems were put in a cup (volume; 180 mL). In the cup 10 second-instar larvae of Plutella xylostella were released, and the cup was stored at 24° C. After 5 days, the number of dead pests was counted, and the dead pest rate was calculated by the following equation:
(§1) Dead pest rate(%)=(the number of dead pests/the number of tested pests)×100
The test concentrations of the other present compounds were 25 ppm.

Plutella xylostella [3] = experiment: Test Example 1: spray on cabbage, dead pest rate of Plutella xylostella larvae; conditions: 500 ppm spray solution, 20 ml/cup on cabbage, 5 second-instar larvae, after 5 days; for pest or weed control at 500 ppm: Plutella xylostella, 120 h
Procedure: Ten parts of the present compound (1), (2), (5) to (19), (21) to (34), (36) to (61), (63), (64), (68) to (71), (74), (76) to (78), (82) to (83), (89), (93), (94), (97), (99), (102) to (110), (111), (115), (116) (117) to (120) or (123) to (134); 35 parts of white carbon containing 50 parts of polyoxyethylene alkyl ether sulfate ammonium salt; and 55 parts of water were mixed, and finely ground by a wet grinding method to obtain a 10% flowable agent. The obtained flowable agent was diluted with water so that the active ingredient concentration became to 500 ppm to prepare a spray solution for test.
Cabbages were planted in polyethylene cups, and grown until the third true leaf or the fourth true leaf was developed. The spray solution for test prepared above was sprayed at a rate of 20 ml/cup on the cabbages.
After the pesticidal solution sprayed onto the cabbages was dried, 5 second-instar larvae of Plutella xylostella were put on the cabbages. After 5 days, the number of dead Plutella xylostella was examined, and a dead pest rate was calculated by the following equation:
as §1

Plutella xylostella [4] = experiment: Test Example 9: spray on plants, cut aerial part, dead pest rate of third-instar Plutella xylostella larvae; conditions: 120 h, spray 20 ml/cup, 10 third-instar larvae, after 5 days at 25° C.; for pest or weed control at 12.5 ppm: test concentration 12.5 ppm; for pest or weed control at 200 ppm: test concentration 200 ppm; for pest or weed control at 50 ppm: test concentration 50 ppm
Procedure: In a mixed solution (0.1 mL) of xylene and N,N-dimethylformamide (mixture volume ratio; xylene:N,N-dimethylformamide=1:1), 30 mg of the present compounds (3), (4), (20), (35), (62), (81), (100), (101) or (112) was dissolved, and further a mixed solution (0.1 mL) of xylene and SORPOL 3005X (manufactured by Toho Chemcials, Co., Ltd.) (mixture volume ratio; xylene:SORPOL 3005X=1:9) was added thereto. The solution was diluted with ion-exchanged water so that the active ingredient became to the predetermined concentration to prepare a pesticidal solution for test of the test compound.
[…] were planted in polyethylene cups, and grown until the third true leaf or the fourth true leaf was developed. The spray solution for test prepared above was sprayed at a rate of 20 ml/cup on the cabbages.
After the pesticidal solution for test was dried, the aerial part of the cabbage was cut, and put into a polyethylene cup having a volume of 100 ml together with 10 third-instar larvae of Plutella xylostella, and stored at 25° C. After 5 days, the number of dead pests was countered, and the dead pest rate was calculated by the following equation:
as §1
Test concentrations of the others were 200 ppm.

Spondoptela litura = experiment: Test Example 3: treated artificial diet (Insecta LF), dead pest rate of Spondoptela litura larvae; conditions: 2 mL on Insecta LF diet, 5 fourth-instar larvae, after 6 days; for pest or weed control at 500 ppm: 144 h
Excerpt: Ten parts of the present compound (1) to (5), (7) to (13), (18) to (33), (35) to (49), (52) to (56), (58) to (61), (71), (73) to (77), (79), (80), (82), (83), (93), (94), (95), (96), (97), (100) to (109), (111), (112), (115), (117), (119), (121), or (123) to (133), 35 parts of white carbon containing 50 parts of polyoxyethylene alkyl ether sulfate ammonium salt, and 55 parts of water were mixed, and finely ground by a wet grinding method to obtain a preparation. The obtained preparation was diluted with water so that the active ingredient concentration became to 500 ppm to prepare a pesticidal solution for test. On the bottom of a polyethylene cup having a diameter of 5.5 cm, a filter paper having a diameter of 5.5 cm was placed, on which Insecta LF (Nippon Agriculture Industries, Co., Ltd.) sliced in a thickness of 6 mm and further cut half was laid, and to which 2 mL of the above-described pesticidal solution for test was added. After air-dried, 5 fourth-instar larvae of Spondoptela litura were released in the cup, and the cup was capped. After 6 days, the number of dead pests was counted, and the dead pest rate was calculated by the following equation:
as §1

Plutella xylostella [5] = experiment: Test Example 6: cabbage root immersion, Plutella xylostella, against comparative compound C; conditions: 100 ppm; root immersion 5 days; 10 second-instar larvae; after 5 days at 24° C.
Procedure: In 0.25 mL of a mixed solution of Tween-20 and acetone (mixture volume ratio: Tween-20:acetone=1:19), 2.5 mg of the present compound (93) or comparative compound C was dissolved. The solution was diluted with ion-exchanged water so that the active ingredient concentration became to the predetermined concentration (100 ppm) to prepare a pesticidal solution for test of the test compound. The root part of cabbages in the fourth leaf period was washed with tap water to remove soils, and then immersed in the pesticidal solution for test. After 5 days from immersion of the root part, the root part was removed, and the leaves and stems were put in a polyethylene cup (volume; 180 mL). In the cup 10 second-instar larvae of Plutella xylostella were released, and the cup was stored at 24° C. After 5 days, the number of dead pests was countered, and the dead pest rate was calculated by the following equation:
as §1

CN(C(=O)NC(=O)c1c(F)cccc1F)c1ccc(SC(F)(F)F)cc1F [(1)]
pest or weed control at 50 ppm [1]: 100%
pest or weed control at 25 ppm (Plutella xylostella [2]): 100%
pest or weed control at 500 ppm (Plutella xylostella [3]): 100%

CN(C(=O)NC(=O)c1c(F)cccc1Cl)c1ccc(SC(F)(F)F)cc1F [(3)]
pest or weed control at 12.5 ppm (Plutella xylostella [4]): 100%
pest or weed control at 25 ppm (Plutella xylostella [2]): 100%

CN(C(=O)NC(=O)c1c(F)cccc1F)c1cc(F)c(SC(F)(F)F)cc1F [(100)]
pest or weed control at 200 ppm (Plutella xylostella [4]): 100%

CN(C(=O)N(C(=O)c1c(F)cccc1F)N(C)C)c1ccc(SC(F)(F)F)cc1F [(115)]
pest or weed control at 500 ppm (Spondoptela litura): 100%
pest or weed control at 500 ppm (Plutella xylostella [3]): 100%

CCN(C(=O)NC(=O)c1c(F)cccc1F)c1ccc(SC(F)(F)F)cc1F [(4)]
pest or weed control at 50 ppm (Plutella xylostella [4]): 100%
pest or weed control at 50 ppm [1]: 100%
pest or weed control at 25 ppm (Plutella xylostella [2]): 100%

COC(=O)CN(C(=O)c1c(F)cccc1F)C(=O)N(C)c1ccc(SC(F)(F)F)cc1F [(81)]
pest or weed control at 200 ppm (Plutella xylostella [4]): 100%
pest or weed control at 50 ppm [1]: 100%

CN(C(=O)NC(=O)c1c(F)cccc1F)c1ccc(S(=O)(=O)C(F)(F)F)cc1F [(20)]
pest or weed control at 12.5 ppm (Plutella xylostella [4]): 100%
pest or weed control at 5 ppm (Plutella xylostella [2]; test concentration of 5 ppm, read-out: dead pest rate): 100%

CN(C(=O)c1c(F)cccc1F)C(=O)N(C)c1cc(F)c(SC(F)(F)F)cc1F [(101)]
pest or weed control at 200 ppm (Plutella xylostella [4]): 100%
pest or weed control at 50 ppm [1]: 100%

CN(C(=O)NC(=O)c1c(F)cccc1F)c1cc(Cl)c(SC(F)(F)C(F)F)c(Cl)c1 [(93)]
pest or weed control at 500 ppm (Spondoptela litura): 100%
dead pest rate (Plutella xylostella [5]): 90%
pest or weed control at 500 ppm (Plutella xylostella [3]): 100%

CON(C(=O)c1c(F)cccc1F)C(=O)N(C)c1ccc(SC(F)(F)F)cc1F [(116)]
pest or weed control at 500 ppm (Plutella xylostella [3]): 100%

C=CCSc1ccc(N(C)C(=O)NC(=O)c2c(F)cccc2F)c(F)c1 [(83)]
pest or weed control at 500 ppm (Spondoptela litura): 100%
pest or weed control at 500 ppm (Plutella xylostella [3]): 100%

CN(C(=O)N(CCOc1ccccc1)C(=O)c1c(F)cccc1F)c1ccc(SC(F)(F)F)cc1F [(62)]
pest or weed control at 200 ppm (Plutella xylostella [4]): 100%
pest or weed control at 50 ppm [1]: 100%
pest or weed control at 25 ppm (Plutella xylostella [2]): 100%

C#CCSc1ccc(N(C)C(=O)NC(=O)c2c(F)cccc2F)c(F)c1 [(89)]
pest or weed control at 500 ppm (Plutella xylostella [3]): 100%

CN(C(=O)N(CC1CC1)C(=O)c1c(F)cccc1F)c1ccc(SC(F)(F)F)cc1F [(71)]
pest or weed control at 50 ppm [1]: 100%
pest or weed control at 500 ppm (Spondoptela litura): 100%

O=C(NC(=O)c1c(F)cccc1F)Nc1cc(Cl)c(SC(F)(F)C(F)F)c(Cl)c1 [comparative compound C, reference compound]
dead pest rate (Plutella xylostella [5]): 20%

CN(C(=O)N(Cc1ccco1)C(=O)c1c(F)cccc1F)c1ccc(SC(F)(F)F)cc1F [(64)]
pest or weed control at 500 ppm (Plutella xylostella [3]): 100%

CN(C(=O)N(CC1CCCO1)C(=O)c1c(F)cccc1F)c1ccc(SC(F)(F)F)cc1F (centres unmarked) [(63)]
pest or weed control at 500 ppm (Plutella xylostella [3]): 100%

Cc1cc(SC(F)F)ccc1N(C)C(=O)NC(=O)c1c(F)cccc1F [(35)]
pest or weed control at 50 ppm (Plutella xylostella [4]): 100%

Cc1c(SC(F)F)ccc(N(C)C(=O)N(C)C(=O)c2c(F)cccc2F)c1C [(112)]
pest or weed control at 50 ppm (Plutella xylostella [4]): 100%
pest or weed control at 500 ppm (Spondoptela litura): 100%

Cc1c(SC(F)F)ccc(N(C)C(=O)NC(=O)c2c(F)cccc2F)c1C [(111)]
pest or weed control at 500 ppm (Spondoptela litura): 100%
pest or weed control at 500 ppm (Plutella xylostella [3]): 100%

CN(C(=O)NC(=O)c1c(F)cccc1F)c1ccc(C(=O)OC(C)(C)C)cc1 [(82)]
dead pest rate (Spondoptela litura; 500 ppm): 100%
control value (Plutella xylostella [3]): 100%

CN(C(=O)N(C(=O)OCc1ccccc1)C(=O)c1c(F)cccc1F)c1ccc(SC(F)(F)F)cc1F [(97)]
pest or weed control at 50 ppm [1]: 100%
pest or weed control at 500 ppm (Spondoptela litura): 100%
pest or weed control at 500 ppm (Plutella xylostella [3]): 100%

CN(C(=O)NC(=O)c1c(F)cccc1F)c1ccc(SC(F)(F)C(F)F)cc1F [(2)]
pest or weed control at 50 ppm [1]: 100%
pest or weed control at 25 ppm (Plutella xylostella [2]): 100%
pest or weed control at 500 ppm (Plutella xylostella [3]): 100%

CN(C(=O)N(CC[S+](C)[O-])C(=O)c1c(F)cccc1F)c1ccc(SC(F)(F)F)cc1F (centres unmarked) [(74)]
control value (Plutella xylostella [3]): 100%

CN(C(=O)N(C(=O)c1c(F)cccc1F)S(=O)(=O)c1ccccc1)c1ccc(SC(F)(F)F)cc1F [(99)]
pest or weed control at 500 ppm (Plutella xylostella [3]): 100%
